From US5158939A, “Method of stimulating the immune systems of animals and compositions useful therefor” (priority 1990, dated 1992)
“Also recorded” adds a separate entry of the source.

Legend:
RAW 264.7 cells = experiment: TNF production by RAW 264.7 cells, dilution for 50% killing of indicator cell line L929; format: cell-based, murine; details: for Dilution to get 50% killing: Table 1
Procedure: The TNF unit is derived by determining how far one can dilute the supernatant of the culture to achieve 50% killing of an indicator cell line.
TNF unit was derived by determining dilution of culture supernatant that kills 50 percent of the indicator cell line.
DPLA was added 2 hours before exposing culture to ReLPS. The ReLPS and DPLA were complexed with bovine serum albumin.^1

[1] = test system: RAW 264.7 murine macrophage cells; details: as reported; cited from earlier work
mice = experiment: LD50 in galactosamine-sensitized mice; format: in vivo
Procedure: Although the diphospholipids from E. coli and Salmonella strains are highly toxic, DPLA having the structure of the diphosphoryllipid A from R. sphaeroides is not. The LD50 of DPLA in galactosamine--sensitized mice was greater than 20 mg/kg.

serum TNF = experiment: Serum TNF rise after E. coli LPS in mice; format: in vivo; details: RsDPLA 100 μg and 1 mg, 60 and 90 min before E. coli LPS 1 μg and 5 μg i.p.
peritoneal macrophages = experiment: Induction of IL-1 in thioglycollate-elicited peritoneal macrophages (comitogenic thymocyte assay); format: cell-based, BDF1 mice; details: for IL-1 induction, CPM: SD in parentheses
Procedure: 1L-1 assay--Peritoneal exudate cells were harvested from BDF1 mice 48 h after an intraperitoneal injection of thioglycollate. […] Macrophages were either pretreated with R. sphaeroides DPLA (0.1-10 μg/ml) followed by the addition of toxic Re LPS (0.1 μg) after 2 h, or immediately stimulated with Re LPS (0.01-1.00 μg/ml). Control wells were treated with 10 μl of media containing 0.5% triethylamine. Cultures were incubated at 37° C. in the presence of 5% CO2 for 18 h at which time the supernatants were collected and frozen at -20° C. until assayed. 1L-1 activity was determined by the comitogenic thymocyte assay.^25
Peritoneal exudate cells were harvested from BDF1 mice 48 h after an intraperitoneal injection of thioglycollate as described previously (Lederer and Czuprynki). Macrophages were either pretreated with R. sphaeroides DPLA (0.1-10 μg/ml) followed by addition of toxic ReLPS (0.1 μg), or immediately stimulated with ReLPS (0.01-1.00 μg/ml). Control wells were treated with 10 μl of media with 0.5% triethylamine. Cultures were incubated at 37° C. in the presence of 5% CO2 for 18 h at which time the supernatants were collected and frozen at -20° C. until assayed.
ReLPS was added to the culture 2 h after adding the R. sphaeroides DPLA. […] Standard deviation in CPM are given in parentheses.

## CCCCCCC=CCCCCCC(=O)OC(CCCCCCCCCCC)CC(=O)NC1C(OCC2OC(OP(=O)(O)O)C(NC(=O)CC(=O)CCCCCCCCCCC)C(OC(=O)CC(O)CCCCCCC)C2O)OC(CO)C(OP(=O)(O)O)C1OC(=O)CC(O)CCCCCCC (stereo not drawn) [DPLA]
RAW 264.7 cells; DPLA alone 10^4 ng/ml
  induction of TNF: measurable but low level in the induction of TNF
RAW 264.7 cells; Mus musculus, RAW264.7, Table 3, DPLA 10 ng/ml, ReLPS 1.0 ng/ml (ReLPS:DPLA 1:10), read-out: Inhibition of induction of TNF by ReLPS
  inhibition at 0.01 µg/mL: 55%
RAW 264.7 cells; Mus musculus, RAW264.7, Table 3, DPLA 100 ng/ml, ReLPS 1.0 ng/ml (1:100), read-out: Inhibition of induction of TNF by ReLPS
  inhibition at 0.1 µg/mL: 95%
RAW 264.7 cells; Mus musculus, RAW264.7, Table 3, DPLA 10000 ng/ml, ReLPS 1.0 ng/ml (1:10^4), read-out: Inhibition of induction of TNF by ReLPS
  inhibition at 10 µg/mL: 81%
RAW 264.7 cells; RAW 264.7 cells, indicator cell line L929
  induction of TNF: not effective in the induction of TNF; also recorded: lack of induction
RAW 264.7 cells; RAW 264.7 cells, in words
  blocking of TNF induction by ReLPS: effectively antagonize the induction of TNF by toxic ReLPS in a dose-dependent manner; also recorded: block the induction of cachectin (TNF); also recorded: blocking of induction
RAW 264.7 cells; DPLA 10 ng/ml 2 h before ReLPS 1.0 ng/ml
  Dilution to get 50% killing: 829
RAW 264.7 cells; DPLA 100 ng/ml 2 h before ReLPS 1.0 ng/ml
  Dilution to get 50% killing: 112
RAW 264.7 cells; DPLA 1000 ng/ml 2 h before ReLPS 1.0 ng/ml
  Dilution to get 50% killing: 86
RAW 264.7 cells; DPLA 10,000 ng/ml 2 h before ReLPS 1.0 ng/ml
  Dilution to get 50% killing: 234
RAW 264.7 cells; DPLA alone 10 ng/ml
  Dilution to get 50% killing: 0
RAW 264.7 cells; DPLA alone 100 ng/ml
  Dilution to get 50% killing: 0
RAW 264.7 cells; DPLA alone 1000 ng/ml
  Dilution to get 50% killing: 71
RAW 264.7 cells; DPLA alone 10,000 ng/ml
  Dilution to get 50% killing: 346
RAW 264.7 cells; Table 3, DPLA 10 ng/ml 2 h before ReLPS 1.0 ng/ml
  Dilution for 50% killing: 2287
RAW 264.7 cells; Table 3, DPLA 100 ng/ml 2 h before ReLPS 1.0 ng/ml
  Dilution for 50% killing: 269
RAW 264.7 cells; Table 3, DPLA 1000 ng/ml 2 h before ReLPS 1.0 ng/ml
  Dilution for 50% killing: 201
RAW 264.7 cells; Table 3, DPLA 10000 ng/ml 2 h before ReLPS 1.0 ng/ml
  Dilution for 50% killing: 973
RAW 264.7 cells; Table 3, DPLA alone 10 ng/ml, complexed with BSA
  Dilution for 50% killing: < 10
RAW 264.7 cells; Table 3, DPLA alone 100 ng/ml, complexed with BSA
  Dilution for 50% killing: 19
RAW 264.7 cells; Table 3, DPLA alone 1000 ng/ml, complexed with BSA
  Dilution for 50% killing: 201
RAW 264.7 cells; Table 3, DPLA alone 10000 ng/ml, complexed with BSA
  Dilution for 50% killing: 764
[1]
  blocking of LPS-induced TNF: competes successfully with toxic LPS to block the induction of TNF in a dose-dependent manner
  induction of TNF: fails to induce the synthesis and release of TNF by macrophages
mice
  LD50: greater than 20 mg/kg
Serum TNF
  rise in serum TNF: blocked a rise in serum TNF
Peritoneal macrophages; DPLA 0.1 μg/ml 2 h before ReLPS 0.1 μg/ml
  IL-1 induction, CPM: 51,999 (4860) CPM
Peritoneal macrophages; DPLA 0.1 μg/ml + ReLPS 0.1 μg/ml
  IL-1 induction, CPM - Blank: 44,211 CPM
Peritoneal macrophages; DPLA 1.0 μg/ml 2 h before ReLPS 0.1 μg/ml
  IL-1 induction, CPM: 28,276 (4860) CPM
Peritoneal macrophages; DPLA 1.0 μg/ml + ReLPS 0.1 μg/ml
  IL-1 induction, CPM - Blank: 20,491 CPM
Peritoneal macrophages; DPLA 10.0 μg/ml 2 h before ReLPS 0.1 μg/ml
  IL-1 induction, CPM: 5,892 (886) CPM
Peritoneal macrophages; DPLA 10.0 μg/ml + ReLPS 0.1 μg/ml
  IL-1 induction, CPM - Blank: 0 CPM
Peritoneal macrophages; DPLA 10.0 μg/ml, ReLPS 0.1 μg/ml (1:100)
  % Inhibition of IL-1 induction by ReLPS: total
Peritoneal macrophages; DPLA alone 0.1 μg/ml
  IL-1 induction, CPM - Blank: 0 CPM
  IL-1 induction, CPM: 3,511 (616) CPM
Peritoneal macrophages; DPLA alone 1.0 μg/ml
  IL-1 induction, CPM - Blank: 0 CPM
  IL-1 induction, CPM: 2,911 (383) CPM
Peritoneal macrophages; DPLA alone 10.0 μg/ml
  IL-1 induction, CPM - Blank: 0 CPM
  IL-1 induction, CPM: 3,764 (785) CPM
